Columns and labels:
[1] = system: BMAA_159_min (FAM-labeled) (DNA, aptamer) GGCTCGGCCCTGGGTGAGGGGCGCAGTGGGGTGTAGCCAG; assay: BMAA-conjugated plate fluorescence assay; conditions: 100 mM NaCl, 5 mM MgCl2, 20 mM Tris pH 7.6, room temperature, immobilised compound on streptavidin plate
[2] = system: BMAA_165_min (FAM-labeled) (DNA, aptamer) GGGCGTGTGTGGGAGGGGGCACTTCGTCGGGGTGAGCCAG; assay: BMAA-conjugated plate fluorescence assay; conditions: 100 mM NaCl, 5 mM MgCl2, 20 mM Tris pH 7.6, room temperature, immobilised compound on streptavidin plate
[3] = system: BMAA_159 (DNA, aptamer) TGTACCGTCTGAGCGATTCGTACGGCTCGGCCCTGGGTGAGGGGCGCAGTGGGGTGTAGCCAGTCAGTGTTAAGGAGTGC; assay: SYBR Green I fluorescence displacement; conditions: 100 mM NaCl, 5 mM MgCl2; 20 mM Tris pH 7.6, room temperature; SYBR Green I displaced; one-site fit
[4] = system: BMAA_165 (DNA, aptamer) TGTACCGTCTGAGCGATTCGTACGGGCGTGTGTGGGAGGGGGCACTTCGTCGGGGTGAGCCAGTCAGTGTTAAGGAGTGC; assay: SYBR Green I fluorescence displacement; conditions: 100 mM NaCl, 5 mM MgCl2; 20 mM Tris pH 7.6, room temperature; SYBR Green I displaced; one-site fit
[5] = system: BMAA_172 (DNA, aptamer) TGTACCGTCTGAGCGATTCGTACGGGGGCCAGTGAATGAGTTGGGGTGGTAATGGGGAGCCAGTCAGTGTTAAGGAGTGC; assay: SYBR Green I fluorescence displacement; conditions: 100 mM NaCl, 5 mM MgCl2, 20 mM Tris pH 7.6, room temperature, four of five candidates bind, not named
[6] = system: BMAA_38 (DNA, aptamer) TGTACCGTCTGAGCGATTCGTACGGGGGTTCACGCTCGAGGGGGCCACAGGGGGAGTAGCCAGTCAGTGTTAAGGAGTGC; assay: SYBR Green I fluorescence displacement; conditions: 100 mM NaCl, 5 mM MgCl2, 20 mM Tris pH 7.6, room temperature, four of five candidates bind, not named
[7] = system: BMAA_165_min (biosensing) (DNA, aptamer) GGGCGTGTGTGGGAGGGGGCACTTCGTCGGGGTG; assay: electrochemical aptamer sensor (SWV, EIS); conditions: 4 mM NaCl, 0.2 mM MgCl2
[8] = system: BMAA_159_min (DNA, aptamer) GGCTCGGCCCTGGGTGAGGGGCGCAGTGGGGTGTAGCCAG; assay: 1H NMR titration; conditions: 100 mM NaCl, 2 mM MgCl2; 20 mM sodium phosphate, 10% D2O, 298 K; qualitative
[9] = system: BMAA_165_scrambled (DNA, aptamer) TGTACCGTCTGAGCGATTCGTACAGTCGTTGGGGGGGGGGGTGAGCGTTGCGCGCGTAGCCAGTCAGTGTTAAGGAGTGC; assay: SYBR Green I fluorescence displacement; conditions: 100 mM NaCl, 5 mM MgCl2; 20 mM Tris pH 7.6, room temperature; SYBR Green I displaced; up to 25 μM BMAA
[10] = system: BMAA_165_min (DNA, aptamer) GGGCGTGTGTGGGAGGGGGCACTTCGTCGGGGTGAGCCAG; assay: 1H NMR titration; conditions: 100 mM NaCl, 2 mM MgCl2; 20 mM sodium phosphate, 10% D2O, 298 K; qualitative
[11] = system: BMAA_159_min (DNA, aptamer) GGCTCGGCCCTGGGTGAGGGGCGCAGTGGGGTGTAGCCAG; assay: circular dichroism; conditions: 100 mM NaCl (100 mM KCl in legend), 5 mM MgCl2; 20 mM Tris pH 7.6, room temperature; qualitative

apparent Kd [1] | apparent Kd [2] | Kd [3] | Kd [4] | apparent Kd [5] | apparent Kd [6] | binding [7] | binding [8] | binding [9] | binding [10] | binding [11] | SMILES
6 ± 1 µM | 0.63 ± 0.02 µM | – | – | – | – | – | – | – | – | – | CNCC(NC(=O)CCOCCOCCOCCOCCNC(=O)CCCC[C@@H]1SC[C@@H]2NC(=O)N[C@@H]21)C(=O)O (some centres unmarked)
– | – | 2.2 ± 0.1 µM | 0.32 ± 0.02 µM | 6.50 (5.23-9.56) uM | 18.6 (3.08-102) uM | yes | yes | no | yes | yes | CNC[C@H](N)C(=O)O

— PMC11046380 (2024)
